Results reported in patent US4294845A, “1,3-Benzodioxin derivatives” (priority 1978, dated 1981).

Legend:
[1] = tested on: levels of triglycerides, cholesterol and total lipids; assay: Hypolipemiant activity: plasma lipid levels in rats on a saccharose and cholesterol-rich regime, 10 days treatment; assay type: in vivo, male rats of the Sprague Dawley S.P.F. strain; conditions: esophague tube, vs untreated controls
Description: This test was effected on groups of 8 male rats of the Sprague Dawley S.P.F. strain weighing about 200 g and the animals received a regime containing 50% of saccharose and which was rich in cholesterol (1%). The rats were treated over 10 days with the test products which were administered through an esophague tube as a suspension in water containing carboxymethylcellulose. The animals were killed 16 hours after the last administration of the test product by an abdominal puncture and from the blood sample with sodium heparinate, the levels of triglycerides, cholesterol and total lipids were determined by the following methods.
The triglyceride level was determined by the semi-automatic technique of Kessler et al [Automation in Analytical Chemistry, 1965, p. 341] modified by Claude et al [Ann. Biol. Clin., Vol. 26 3-4 (1968), p. 451]. The cholesterol levels were determined by the technique of Levine [Symposium Technicon, Vol. I. (1967), p. 25] adapted to auto-analyzer system I. The nephelometric level of total lipids was determined semi-automatically by the method of Girard et al [Symposium Technicon, 1970]. The variations expressed in percentages of the level of triglycerides, cholesterol and total lipids after administration of the various dosage of the test products in the treated animals as compared to the untreated controls and the results are reported in Table I.

[2] = Acute toxicity in mice (intraperitoneal, DL50); assay type: in vivo; conditions: mouse, in vivo, ip, observed for one week
Description: (§1) The acute toxicity was determined on groups of 5 mice weighing about 18 to 22 g and the test products were intraperitoneally administered in suspension in an aqueous carboxymethylcellulose.

[3] = tested on: mice; assay: Acute toxicity in mice (intraperitoneal, DL50); assay type: in vivo; conditions: observed for one week, 10080 min
Description: as §1

| SMILES | % Variation of levels, Cholesterol ([1]; 5 mg/kg/day) [%] | % Variation of levels, Total Lipids ([1]; 5 mg/kg/day) [%] | % Variation of levels, Triglycerides ([1]; 5 mg/kg/day) [%] | LD50 at 168 h [2] [mg/kg] | % Variation of levels, Cholesterol ([1]; 2 mg/kg/day) [%] | % Variation of levels, Total Lipids ([1]; 2 mg/kg/day) [%] | % Variation of levels, Triglycerides ([1]; 2 mg/kg/day) [%] | DL50 [3] [mg/kg] | % Variation of levels, Cholesterol ([1]; 1 mg/kg/day) [%] | % Variation of levels, Total Lipids ([1]; 1 mg/kg/day) [%] | % Variation of levels, Triglycerides ([1]; 1 mg/kg/day) [%] |
| --- | --- | --- | --- | --- | --- | --- | --- | --- | --- | --- | --- |
| CC1(c2ccccc2)OC(C(=O)O)Oc2ccc(Cl)cc21 (racemic) [Example 1, 6-chloro-4-methyl-4-phenyl-[4H]-1,3-benzodioxin-2-carboxylic acid] | -22 | -26 | -11 | 130 | – | – | – | – | – | – | – |
| CC1(c2ccccc2)OC(C(=O)O)Oc2ccc(Cl)cc21 (racemic) [Example 3, 6-chloro-4-methyl-4-phenyl-[4H]-1,3-benzodioxin-2-carboxylic acid] | – | – | – | – | -36 | -38 | -12 | 150 | – | – | – |
| CCOC(=O)C1Oc2ccc(Cl)cc2C(C)(c2ccccc2)O1 (single isomer, unassigned) [16 Isomer A] | – | – | – | ~800 | -17 | -25 | -32 | – | – | – | – |
| CC1(c2ccccc2)OC(C(=O)O)Oc2ccc(Cl)cc21 (single isomer, unassigned) [17 Isomer A] | – | – | – | ~200 | -43 | -47 | -57 | – | – | – | – |
| CC1(c2ccccc2)OC(C(=O)O)Oc2ccc(Cl)cc21 (single isomer, unassigned) [18 Isomer A 1 form] | – | – | – | ~250 | -47 | -53 | -53 | – | – | – | – |
| COC(=O)C1Oc2ccc(Cl)cc2C(C)(c2cccc(Cl)c2)O1 (single isomer, unassigned) [20 Isomer A] | – | – | – | ≤ 1000 | – | – | – | – | -36 | -32 | -13 |
| CC1(c2cccc(Cl)c2)OC(C(=O)O)Oc2ccc(Cl)cc21 (single isomer, unassigned) [21 Isomer A] | – | – | – | ~150 | – | – | – | – | -11 | -25 | -62 |
| CN(C)CCOC(=O)C1Oc2ccc(Cl)cc2C(C)(c2ccccc2)O1 (single isomer, unassigned) [41 Isomer A] | -40 | -49 | -43 | ~200 | – | – | – | – | – | – | – |
